Data from ChEMBL document CHEMBL5244219, “Recent developments of quinolone-based derivatives and their activities against Escherichia coli” (Eur J Med Chem, 2018).
≈ marks a conversion by molar mass, not a printed value.

These molecules were tested on Escherichia coli (assay: Antibacterial activity against Escherichia coli NCDC 134 assessed as bacterial growth inhibition).
Format: functional

Structure (SMILES) | MIC
COc1ccc(/C=N/NC(=O)c2cn(C3CC3)c3cc(N/N=C/c4ccc(OC)cc4)c(F)cc3c2=O)cc1 | > 64 µg/mL
O=C(N/N=C/c1ccc(F)cc1)c1cn(C2CC2)c2cc(N/N=C/c3ccc(F)cc3)c(F)cc2c1=O | > 64 µg/mL
O=C(N/N=C/c1ccccc1O)c1cn(C2CC2)c2cc(N/N=C/c3ccccc3O)c(F)cc2c1=O | > 64 µg/mL
COc1cc(/C=N/NC(=O)c2cn(C3CC3)c3cc(N/N=C/c4cc(OC)c(OC)c(OC)c4)c(F)cc3c2=O)cc(OC)c1OC | > 64 µg/mL
COc1ccc(/C=N/NC(=O)c2cn(C3CC3)c3cc(N/N=C/c4ccc(OC)c(O)c4)c(F)cc3c2=O)cc1O | > 64 µg/mL
COc1ccc(/C=N/NC(=O)c2cn(C3CC3)c3cc(N4CCNCC4)c(F)cc3c2=O)cc1O | > 64 µg/mL
CCN(CC)Cc1cn(-c2cc3c(cc2F)c(=O)c(C(=O)NO)cn3C2CC2)nn1 | > 64 µg/mL
CN(C)Cc1cn(-c2cc3c(cc2F)c(=O)c(C(=O)NO)cn3C2CC2)nn1 | > 64 µg/mL
O=C(N/N=C/c1ccc([N+](=O)[O-])cc1)c1cn(C2CC2)c2cc(N3CCNCC3)c(F)cc2c1=O | > 64 µg/mL
COc1ccc(/C=N/NC(=O)c2cn(C3CC3)c3cc(N4CCNCC4)c(F)cc3c2=O)cc1 | > 64 µg/mL
O=C(N/N=C/c1ccccc1)c1cn(C2CC2)c2cc(N/N=C/c3ccccc3)c(F)cc2c1=O | > 64 µg/mL
O=C(N/N=C/c1ccc2c(c1)OCO2)c1cn(C2CC2)c2cc(N3CCNCC3)c(F)cc2c1=O | > 64 µg/mL
O=C(N/N=C/c1ccc(F)cc1)c1cn(C2CC2)c2cc(N3CCNCC3)c(F)cc2c1=O | > 64 µg/mL
O=C(N/N=C/c1ccccc1O)c1cn(C2CC2)c2cc(N3CCNCC3)c(F)cc2c1=O | > 64 µg/mL
O=C(N/N=C/c1ccccc1)c1cn(C2CC2)c2cc(N3CCNCC3)c(F)cc2c1=O | > 64 µg/mL
O=C(NO)c1cn(C2CC2)c2cc(-n3cc(CN4CCNCC4)nn3)c(F)cc2c1=O | > 64 µg/mL

Results, then the molecule that gave them:

MIC | Structure (SMILES)
6 µg/mL (≈ 11.5 µM) | CCn1cc(C(=O)O)c(=O)c2cc(F)c(N3CCN(CC(=O)Nc4nc5ccc(C)cc5s4)CC3)cc21
6 µg/mL (≈ 10.4 µM) | CCn1cc(C(=O)O)c(=O)c2cc(F)c(N3CCN(CC(=O)Nc4nc5c(Cl)ccc(Cl)c5s4)CC3)cc21
6 µg/mL (≈ 10.8 µM) | CCn1cc(C(=O)O)c(=O)c2cc(F)c(N3CCN(CC(=O)Nc4nc5ccc([N+](=O)[O-])cc5s4)CC3)cc21
6 µg/mL (≈ 9.46 µM) | COc1c(N2CCN(CC(=O)Nc3nc4c(Cl)ccc(Cl)c4s3)C(C)C2)c(F)cc2c(=O)c(C(=O)O)cn(C3CC3)c12 (configuration not stated)
6 µg/mL (≈ 10 µM) | COc1c(N2CCN(CC(=O)Nc3nc4ccc(Cl)cc4s3)C(C)C2)c(F)cc2c(=O)c(C(=O)O)cn(C3CC3)c12 (configuration not stated)
6 µg/mL (≈ 10.2 µM) | O=C(CN1CCN(c2cc3c(cc2F)c(=O)c(C(=O)O)cn3C2CC2)CC1)Nc1nc2c(Cl)ccc(Cl)c2s1
6 µg/mL (≈ 9.83 µM) | COc1c(N2CCN(CC(=O)Nc3nc4ccc([N+](=O)[O-])cc4s3)C(C)C2)c(F)cc2c(=O)c(C(=O)O)cn(C3CC3)c12 (configuration not stated)
6 µg/mL (≈ 11.2 µM) | Cc1ccc2nc(NC(=O)CN3CCN(c4cc5c(cc4F)c(=O)c(C(=O)O)cn5C4CC4)CC3)sc2c1
6 µg/mL (≈ 11 µM) | CCn1cc(C(=O)O)c(=O)c2cc(F)c(N3CCN(CC(=O)Nc4nc5ccc(Cl)cc5s4)CC3)cc21
6 µg/mL (≈ 11.1 µM) | O=C(CN1CCN(c2cc3c(cc2F)c(=O)c(C(=O)O)cn3C2CC2)CC1)Nc1nc2ccc(F)cc2s1
6 µg/mL (≈ 10.8 µM) | O=C(CN1CCN(c2cc3c(cc2F)c(=O)c(C(=O)O)cn3C2CC2)CC1)Nc1nc2ccc(Cl)cc2s1
6 µg/mL (≈ 10.3 µM) | COc1c(N2CCN(CC(=O)Nc3nc4ccc(F)cc4s3)C(C)C2)c(F)cc2c(=O)c(C(=O)O)cn(C3CC3)c12 (configuration not stated)

These molecules were tested on Escherichia coli (assay: Antibacterial activity against Escherichia coli assessed as bacterial growth inhibition incubated for 18 hrs by twofold serial dilution assay).
Format: functional

Structure (SMILES) | MIC
CCn1cc(C(=O)O)c(=O)c2cc(F)c(N3CCN(C/C(=N/OCc4ccccc4)c4ccoc4)CC3)nc21 | 0.049 µg/mL (≈ 0.0918 µM)
O=C(CN1CCN(c2cc3c(cc2F)c(=O)c(C(=O)O)cn3C2CC2)CC1)c1cccs1 | 0.0075 µg/mL (≈ 0.0165 µM)
CCn1cc(C(=O)O)c(=O)c2cc(F)c(N3CCN(C/C(=N/O)c4ccoc4)CC3)cc21 | 0.049 µg/mL (≈ 0.111 µM)
CO/N=C(/CN1CCN(c2cc3c(cc2F)c(=O)c(C(=O)O)cn3C2CC2)CC1)c1cccs1 | 0.0075 µg/mL (≈ 0.0155 µM)
CCn1cc(C(=O)O)c(=O)c2cc(F)c(N3CCNCC3)nc21 [ENOXACIN] | 0.13 µg/mL (≈ 0.406 µM)
CCn1cc(C(=O)O)c(=O)c2cc(F)c(N3CCN(C/C(=N/OCc4ccccc4)c4ccoc4)CC3)cc21 | 0.049 µg/mL (≈ 0.092 µM)
CCn1cc(C(=O)O)c(=O)c2cc(F)c(N3CCN(C/C(=N/O)c4ccoc4)CC3)nc21 | 0.049 µg/mL (≈ 0.111 µM)
CCn1cc(C(=O)O)c(=O)c2cc(F)c(N3CCN(CC(=O)c4ccoc4)CC3)nc21 | 0.049 µg/mL (≈ 0.114 µM)
O=C(O)c1cn(C2CC2)c2cc(N3CCN(C/C(=N/O)c4ccoc4)CC3)c(F)cc2c1=O | 0.049 µg/mL (≈ 0.108 µM)
O=C(CN1CCN(c2cc3c(cc2F)c(=O)c(C(=O)O)cn3C2CC2)CC1)c1ccoc1 | 0.049 µg/mL (≈ 0.112 µM)
O=C(O)c1cn(C2CC2)c2c(F)c(N3CCCNCC3)c(F)cc2c1=O | 0.03 µg/mL (≈ 0.0826 µM)
O=C(O)c1cn(C2CC2)c2nc(N3CCN(C/C(=N/OCc4ccccc4)c4ccoc4)CC3)c(F)cc2c1=O | 0.049 µg/mL (≈ 0.0898 µM)

The next lines start with the values.

MIC | Structure (SMILES)
0.03 µg/mL (≈ 0.0787 µM) | O=C(O)c1cn(C2CC2)c2c(F)c(N3CCNCC(F)C3)c(F)cc2c1=O (configuration not stated)
0.25 µg/mL (≈ 0.659 µM) | O=C(O)c1cn(C2CC2)c2c(F)c(N3CCNCC(O)C3)c(F)cc2c1=O (configuration not stated)
